In US6437002B1, “Agent for preventing and treating skin diseases” (Showa Denko K.K., priority 1998, dated 2002):

Legend:
[1] = tested on: dorsum skin of hairless mouse; assay: Test (A): skin permeability and ascorbic acid activity, H-type transverse diffusion cell; format: in vitro ADME; design: key: When an ascorbic acid transmitted through the skin was identified, the evaluation was “+”; when an ascorbic acid was not detected, the evaluation was “−”; When a peak on the order of a trace was confirmed, the evaluation was “+”; details: abraded hairless mouse skin, 37° C., 30 to 120 minutes
Description: The dorsum skin with corium of a 4- or 5-week-old hairless mouse was abraded and the skin abraded from the back of the hairless mouse was fixed in an H-type transverse diffusion cell. Then, 2 ml of DALBECCO PBS(−) was charged into the receiver-side cell and 2 ml of a specimen was charged into the donor-side cell. After incubation at 37° C. for from 30 to 120 minutes, 200 μl was sampled from the […] and 200 μl of DALBECCO PBS(−) was replenished. An ascorbic acid amount of the solution sampled was analyzed by the HPLC method described later in the Examples. When an ascorbic acid transmitted through the skin was detected and identified, the evaluation was “+” and when an ascorbic acid was not detected and identified, the evaluation was “−”. When a peak on the order of a trace was confirmed, the evaluation was “±”.
The dorsum skin with corium of a 4- or 5-week-old hairless mouse was abraded and the skin abraded from the back of the hairless mouse was fixed in an H-type transverse diffusion cell. Then, 2 ml of DALBECCO PBS(−) was charged into the receiver-side cell and 2 ml of a specimen was charged into the donor-side cell (in the case of an oil-soluble material, it was emulsion-dispersed in an ordinary manner by adding 2% of a surfactant Tween 80 (trademark)). After incubation at 37° C. for from 30 to 120 minutes, 200 μl was sampled from the […] and 200 μl of DALBECCO PBS (−) was replenished. An ascorbic acid amount of the solution sampled was analyzed by the HPLC method in the Examples. When an ascorbic acid transmitted through the skin was identified, the evaluation was “+” and when an ascorbic acid was not detected, the evaluation was “−” When a peak on the order of a trace was confirmed, the evaluation was […].

[2] = Test (B): durability (activity duration) on storage; format: physicochemical; details: 0.5% in water (oil-soluble: emulsion with 2% Tween 80), stored at 40° C. for one month
Description: An ascorbic acid derivative was dissolved in water to have a concentration of 0.5% (in the case of an oil-soluble SF-621 US material, it was emulsion-dispersed in an ordinary manner by adding 2% of a surfactant Tween 80 (trademark)) and stored at 40° C. for one month. Then the residual amount of the derivative was measured by the HPLC method described later in the Examples. When the residual ratio was 90% or more, the evaluation was “+” and when it was less than 90%, the evaluation was “−”.
An ascorbic acid derivative was dissolved in water to have a concentration of 0.5% (in the case of an oil-soluble material, it was emulsion-dispersed in an ordinary manner by adding 2% of a surfactant Tween 80 (trademark)) and stored at 40° C. for one month. Then the residual amount of the derivative was measured by the HPLC method. When the residual ratio was 90% or more, the evaluation was “+” and when it was less than 90%, the evaluation was “−”.

Molecule	Test (A): skin permeability and ascorbic acid activity (ascorbic acid transmitted through the skin, by HPLC) [1]	Test (B): durability (residual ratio of the derivative by HPLC) [2]
O=C1O[C@H]([C@@H](O)CO)C(O)=C1OP(=O)([O-])[O-].[Mg+2] [Magnesium L-ascorbic acid-2-phosphate]		+ (When the residual ratio was 90% or more, the evaluation was “+”)
O=C1O[C@H]([C@@H](O)CO)C(O)=C1OP(=O)([O-])[O-].[Na+].[Na+] [Sodium L-ascorbic acid-2-phosphate]	+	+ (When the residual ratio was 90% or more, the evaluation was “+”)
O=C1O[C@H]([C@@H](O)CO)C(O)=C1OP(=O)([O-])[O-].[K+].[K+] [Potassium L-ascorbic acid-2-phosphate]	+	+ (When the residual ratio was 90% or more, the evaluation was “+”)

Continued, in another order:

Test (A): skin permeability and ascorbic acid activity (ascorbic acid transmitted through the skin, by HPLC) [1]	Molecule	Test (B): durability (residual ratio of the derivative by HPLC) [2]
+	O=C1O[C@H]([C@@H](O)CO)C(O)=C1O[C@H]1O[C@H](CO)[C@@H](O)[C@H](O)[C@H]1O [L-Ascorbic acid-2-glucoside]	+ (When the residual ratio was 90% or more, the evaluation was “+”)
−	Cc1c(C)c2c(c(C)c1OP(=O)(O)OC1=C(O)[C@@H]([C@@H](O)CO)OC1=O)CC[C@@](C)(CCC[C@H](C)CCC[C@H](C)CCCC(C)C)O2 [Ascorbic acid tocopherolphosphate diester, reference compound]	+ (When the residual ratio was 90% or more, the evaluation was “+”)
−	O=C1O[C@H]([C@@H](O)CO)C(O)=C1OS(=O)(=O)[O-].[Na+] [Sodium L-ascorbic acid-2-sulfate, reference compound]	+ (When the residual ratio was 90% or more, the evaluation was “+”)
+	2-Palmitoyloxy-L-ascorbic acid-2-phosphate	
